{"source": "patent US20210251883A1", "about": "“METHOD FOR PREPARING ENZYME-TREATED ZIZANIA LATIFOLIA TURCZ. EXTRACT HAVING INCREASED TRICIN CONTENT, AND COMPOSITION FOR WHITENING, WRINKLE REDUCTION, ANTI-INFLAMMATION, ANTI-ALLERGY AND MOISTURIZATION, PREPARED THEREBY” (BTC CORPORATION, priority 2018, published 2021)", "key": {"RBL-2H3 cells": {"system": "RBL-2H3 cells", "assay": "β-hexosaminidase release in IgE/antigen-stimulated RBL-2H3 cells", "assay_type": "cell-based, rat", "conditions": "concentration series of single substance; versus DNP-HSA", "method": "The anti-allergic efficacy of the Zizania latifolia Turcz. extract prepared in the above Preliminary Experiments 2 to 4 was confirmed. First, RBL-2H3 cells, a rat basophilic leukemia cell line, were purchased from Korea Cell Line Bank (KCLB, Seoul, Korea). RBL-2H3 cells were cultured in MEM (Gibco BRL, NY, USA) medium containing 10% FBS and 1% penicillin/streptomycin in an incubator at 37° C. and 5% CO2.\nSecond, the inhibitory effect of the extract on the release of β-hexosaminidase was confirmed in RBL-2H3 cells. RBL-2H3 cells were dispensed into a 24-well plate at 2×10^5 cells per well and stimulated with anti-DNP IgE (450 ng/mL) overnight at 37° C. […] Then, the reaction was stopped by immersing in an ice water bath for 10 minutes. 25 μL of the supernatant was transferred to a 96-well plate and 25 μL of 0.1 M citrate buffer (pH 4.5) in which the substrate (1 mM p-nitrophenyl-nacetyl-β-D-glucosaminide) is dissolved, was added and reacted at 37° C. for 1 hour. Thereafter, 200 μL of a stop solution (0.1 M Na2CO3/NaHCO3, pH 10.0) was added to stop the reaction, and the absorbance was measured at 405 nm using a microplate reader."}, "B16-F0 cells": {"system": "B16-F0 cells", "assay": "inhibition of melanin production in melanin cell line B16-F0 (α-MSH/IBMX stimulated)", "assay_type": "cell-based, mouse", "conditions": "concentration series of single substance", "method": "The whitening effect of the Zizania latifolia Turcz. extract prepared in the above Preliminary Experiments 2 to 4 was confirmed. First, mouse-derived melanin cell line B16-F0 cells were distributed from the American Type Culture Collection (ATCC, USA), and using DMEM medium (ATCC, ATCC 30-2002, USA) to which 10% FBS and 1% antibiotics (penicillin/streptomycin) were added, the cells were subcultured 2 to 3 times in an incubator at 37° C. in the presence of 5% CO2 and used.\nSecond, the ability of the Zizania latifolia Turcz. extract and tricin to inhibit melanin production in the mouse-derived melanin cell line B16-F0 was measured. B16-F0 cells were dispensed into a 6-well plate at 5×10^5 cells/well and pre-cultured in a 5% CO2 incubator for 20 to 24 hours, and then each extract sample was treated and cultured for 48 hours. […]\nThe melanoma cells adhered to the surface of the 6-well plate were removed from the cultured cells, dispensed into a 1.5 mL tube, and centrifuged at 13,000 rpm for 10 minutes using a centrifuge maintained at 4° C. […] After reacting for 1 hour in an oven at 60° C., 100 μL was dispensed to each well in a 96-well plate and O.D was measured with an ELISA reader (405 nm). […]"}, "RAW264.7 cells": {"system": "RAW264.7 cells", "assay": "NO assay in lipopolysaccharide-induced macrophage cell line RAW264.7", "assay_type": "cell-based", "conditions": "concentration series of single substance; versus LPS", "method": "The production of NO was confirmed through the NO assay, and the specific process was as follows: The macrophage cell line RAW264.7 was distributed from the Korea Cell Line Bank (KCLB, Seoul, Korea), and using DMEM medium (Welgene, Gyeongsan, Korea) to which 10% FBS and 1% antibiotics (penicillin/streptomycin) were added, the cells were subcultured 2 to 3 times in an incubator at 37° C. in the presence of 5% CO2 and used.\nRAW264.7 cells were dispensed into a 96-well plate at […] and pre-cultured in a 5% CO2 incubator for 20 to 24 hours, and each extract sample was treated and cultured for 24 hours. […] After the reaction was completed, optical density (O.D) was measured with an ELISA reader at a wavelength of 540 nm. At this time, the measured O.D was expressed as a percentage (%) compared with the O.D value in the cells to which lipopolysaccharide was added.\nSecond, NO assay was performed to measure the anti-inflammatory effect of the Zizania latifolia Turcz. extract and tricin using RAW264.7. […] After the reaction was completed, optical density (O.D) was measured with an ELISA reader at a wavelength of 540 nm. At this time, the measured O.D was expressed as a percentage (%) compared with the O.D value in the cells to which lipopolysaccharide was added. […]"}, "[1]": {"system": "CCD-986sk fibroblast cells, human dermal fibroblasts (HDF)", "assay": "procollagen type I C-peptide EIA, collagen synthesis in fibroblasts", "assay_type": "cell-based", "conditions": "concentration series of single substance", "method": "The anti-wrinkle effect of the Zizania latifolia Turcz. extract prepared in Preliminary Experiments 2 to 4 was confirmed. First, human-derived CCD-986sk fibroblast cells were distributed from Korea Culture Tissue Collection (KCTC, Korea), and human dermal fibroblasts (HDF) were distributed from Seorin Bio. In addition, CCD-986sk fibroblasts were subcultured 2 to 3 times in an incubator at 37° C. in the presence of 5% CO2 using IMDM medium (ATCC, ATCC 30-2005, USA) supplemented with 10% FBS and 1% antibiotics (penicillin/streptomycin) and used. […]\nSecond, procollagen and MMP families (MMP-1, 2, 3, 9, 13) are factors that are discharged to the outside of the cell culture solution, and the cell culture solution reacted with the sample was collected and used. […] (standard sample), procollagen type I C-peptide EIA kit manufactured by Takara was used, the quantification curve was measured using PIP to calculate the amount of collagen synthesis for each sample. In addition, by measuring the inhibitory ability of metalloproteinase-1 (MMP-1), MMP-2, MMP-3, MMP-9, and […], which are factors affecting wrinkles, Zizania latifolia Turcz. enzyme treatment (standard sample) and tricin were evaluated for wrinkle improvement effect. The inhibitory ability of MMP-1, 2, 3, 9, 13 was measured using a product manufactured by Abcam."}, "SKH-1 hairless mouse": {"system": "SKH-1 hairless mouse", "assay": "UVB-irradiated wrinkle-induced SKH-1 hairless mouse animal experiment", "assay_type": "in vivo", "text": "The anti-wrinkle improvement and moisturizing effects were confirmed through animal experiments for the enzyme-treated extract of Zizania latifolia Turcz. prepared in the above Example 1. For the experiment, biochemical analysis equipment (Roche Ltd, Basel, Switzerland), glass teflon homogenizer (Chang shin scientific Co., Korea), microplate reader (Bio-TEK, USA), protein quantification equipment (Chemi-Doc; BIORAD, USA), a centrifuge (Hanil FLETA5, Korea), a water bath (Thermo minder taitec, Japan), and a deep freezer (Sanyo, Japan) were used. In addition, glass Teflon homogenizer (Daihan Scientific Group, Korea), UV-spectrophotometer (Shimadzu UV-1201, Japan), high-speed centrifuge (Hanil HMR-1610V, Korea), medical freezer (Sanyo, Japan)), a microplate reader (Bio-TEK), and protein quantification equipment (Chemi-Doc; BIORAD) were used. […]\nFirst, the body weight of each animal was measured to observe the change in body weight. […]"}}, "data": [{"compound": "COc1cc(-c2cc(=O)c3c(O)cc(O)cc3o2)cc(OC)c1O", "note": "[tricin, Tricin]", "values": [{"measurement": "β-hexosaminidase release rate according to the concentration (FIG. 13)", "setting": "RBL-2H3 cells", "result": "decreased in a concentration-dependent manner"}, {"measurement": "melanin generation according to the concentration (FIG. 9)", "setting": "B16-F0 cells", "result": "decreased in a concentration-dependent manner"}, {"measurement": "NO generation according to the concentration (FIG. 7)", "setting": "RAW264.7 cells", "result": "decreased in a concentration-dependent manner"}, {"measurement": "collagen generation according to the concentration (FIG. 11)", "setting": "[1]", "result": "increased in a concentration-dependent manner"}, {"measurement": "moisture of the skin surface", "setting": "SKH-1 hairless mouse; T group, 0.3 mg/kg oral, 14 weeks, UVB, FIG. 16", "result": "maintained"}, {"measurement": "SILFLO microscopic observation of wrinkles versus group C", "setting": "SKH-1 hairless mouse; group T, tricin 2 mg/kg as printed, until the 8th week of UVB irradiation", "result": "wrinkles were relatively less formed compared to group C"}]}]}
